Assay results from publication PMC12587574, “Mass balance, pharmacokinetics, metabolism, and excretion of radiolabeled acoziborole, a potential novel treatment for human African trypanosomiasis, following single microtracer oral dose to humans” (Antimicrobial Agents and Chemotherapy, 2025).
Values joined by “and” are separate entries in the source; they are usually repeats but may differ in a detail not shown here. Equal entries are not always repeated. Where two headings read alike, the source gives them in different places.

What was measured:
[1] = Excretion and mass balance of total radioactivity in urine and feces (AMS); format: in vivo, human
Procedure: Urine samples were collected before IP administration (single urine void) and then during intervals of 0–6, 6–12, 12–24, 24–48, 48–72, 72–96, 96–120, 120–168, 168–192, 192–216, and 216–240 h post-dose and for the additional 48-h collection period starting on Day 15 post-dose, that is, 336–384 h. Samples were acidified with citric acid to avoid acoziborole degradation and were refrigerated until the end of the block collection periods. The total weight and volume of urine were then recorded. At the end of each collection period, two aliquots of acidified urine (20 mL) were taken from the sample and stored in polypropylene tubes at −20°C until further analysis for total radioactivity. Two aliquots of 1 mL acidified urine were collected into tubes containing bovine serum albumin in aqueous solution (to avoid non-specific adsorption of acoziborole) and NaCl for acoziborole and SCYX-3109 assays. Urine samples for metabolite profiling were pooled for each participant according to the time intervals reported above, from 0 to 240 h.
Feces were collected before dosing and at block intervals of 0–6, 6–12, 12–24, 24–48, 48–72, 72–96, 96–120, 120–168, and 168–240 h post-dose and for five additional 48-h home collection periods starting on Days 15, 29, 59, 89, and 119. At the end of each collection period, a portion of the sample (50 g) was retained and stored at approximately −20°C until analyzed. The remaining fecal homogenate was combined with that collected at the end of each time interval and stored at approximately −20°C.
TNO (Leiden, the Netherlands) performed the analysis of total radioactivity and the metabolite profiling and identification. All blood, plasma, urine, and fecal homogenate samples were analyzed for total radioactivity by accelerator mass spectrometry (AMS). AMS analysis was performed on a 1 MV multi-element AMS, model 4110 Bo, high voltage engineering (software: AMS 155), using Australian National University (ANU) sucrose-8542 (C12H22O11) with a certified ^14C/^12C isotope ratio ([10]) as the system suitability test sample and [^14C]-paracetamol as an AMS quality check sample.
For each (diluted) sample, 5 µL blood, 5 µL plasma, 15 µL urine, or 30 mg fecal homogenate prepared in 1% CMC solution (1% CMC solution:feces ratio of 4:1) were transferred to tin foil cups. The samples were dried under a stream of nitrogen and subsequently placed in the elemental analyzer (EA, Vario Micro, Elementar, Germany), which acts as an autosampler and combustion device for the AMS. Single samples of blood, plasma, and urine were analyzed. Fecal homogenates were analyzed in triplicate, and the averaged value was reported. Total radioactivity in plasma and blood was expressed as ng equivalents (Eq) of acoziborole/mL. The LLOQ was 47.3 ngEq/mL in plasma (1.51 mBq/mL), 165.4 ngEq/mL in blood (5.28 mBq/mL), 33.8 ngEq/mL in urine (1.08 mBq/mL), and 87.1 ngEq/mL in feces (2.78 mBq/mL).
Blood-to-plasma ratio was calculated based on Cmax and AUC values. For total radioactivity excreted in urine, feces, and both combined, the following parameters were calculated: total amount of total radioactivity excreted over the time interval between t1 and t2 (Aet1−t2), Aet1−t2 expressed as a percentage of the radioactive dose administered (%Aet1−t2), CumAe, and Cum%Ae. For CumAe calculation, the recovery of total radioactivity during WinNonlin time intervals in which urine and feces were not collected was estimated using the area under the excretion rate-time curve from the end of the preceding collection interval to the start of the subsequent collection interval.

[2] = design: method as in PMID 21738803; details: oral, mice; cited from earlier work
gambiense HAT infection = system: gambiense HAT infection; design: method as in PMID 36460027; details: single oral 960 mg, fasting, cited from earlier work
[3] = 960 mg single oral dose, N = 6, mean and SD
[4] = 960 mg single oral dose, N = 6, mean and SD, listed as [^14C]-acoziborole
[5] = t set to 1440 h (60 days), N = 6, mean and SD
[6] = t set to 1440 h (Day 60), N = 6, mean and SD, listed as [^14C]-acoziborole

Compound: CC1(C)OB(O)c2cc(NC(=O)c3ccc(F)cc3C(F)(F)F)ccc21 [acoziborole]
- Cum%Ae0-240h dose, total radioactivity recovered (urine and faeces) [1, 3]: 58.6 ± 8.6%
- Cum%Ae0-384h dose, total radioactivity recovered (urine and faeces) [1, 3]: 70.8 ± 8.1%
- CumAe0-240h, total radioactivity in faeces [1, 3]: 488.8 ± 84.8 mgEq
- CumAe0-240h, total radioactivity in urine [1, 3]: 74.0 ± 18.5 mgEq
- CumAe0-240h, total radioactivity recovered (urine and faeces) [1, 3]: 562.9 ± 82.8 mgEq
- CumAe0-384h, total radioactivity in faeces [1, 3]: 574.9 ± 81.4 mgEq
- CumAe0-384h, total radioactivity in urine [1, 3]: 104.6 ± 28.9 mgEq
- CumAe0-384h, total radioactivity recovered (urine and faeces) [1, 3]: 679.6 ± 77.5 mgEq
- Cum%Ae0-240h dose, total radioactivity in faeces [1, 4]: 50.9 ± 8.8%
- Cum%Ae0-240h dose, total radioactivity in urine [1, 4]: 7.7 ± 1.9%
- Cum%Ae0-384h dose, total radioactivity in faeces [1, 4]: 59.9 ± 8.5%
- Cum%Ae0-384h dose, total radioactivity in urine [1, 4]: 10.9 ± 3.0%
- increment in excretion of total radioactivity ([1]; between Days 59 and 61 (up to 1,440 h)): < 1%
- absorbed fraction, estimated ([1]; fasting condition, assuming gastrointestinal transit time of approximately 3 days): ≥ 70 % of the dose
- geometric mean recovery of total radioactivity in urine and feces ([1]; over the total 1,392 h, CV% 5.5%): 87.2%
- CumAe0-t, total radioactivity in faeces [1, 5]: 712.1 ± 56.4 mgEq
- CumAe0-t, total radioactivity recovered (urine and faeces) [1, 5]: 838.4 ± 48.9 mgEq
- Cum%Ae0-t dose, total radioactivity in faeces [1, 6]: 74.2% and 74.2 ± 5.9%
- Cum%Ae0-t dose, total radioactivity recovered (urine and faeces) [1, 6]: 87.3% and 87.3 ± 5.1%
- CumAe0-t, total radioactivity in urine ([1]; urine collection limited to 384 h, N = 6, mean and SD): 104.6 ± 28.9 mgEq
- Cum%Ae0-t dose, total radioactivity in urine ([1]; urine collection limited to 384 h, N = 6, mean and SD, listed as [^14C]-acoziborole): 10.9% and 10.9 ± 3.0%
- absolute bioavailability [2]: 55%
- safety and tolerability profile (gambiense HAT infection; 208 patients): acceptable safety and tolerability profile
- treatment success rate at 18 months (gambiense HAT infection; 159 out of 162 patients, evaluable population): 98.1%
- treatment success rate at 18 months (gambiense HAT infection; late-stage patients, modified intention-to-treat population): 95.2%
